Measurements as given in the supplement of paper PMC10627819.

What was measured:
[1] = system: S. pneumoniae D39V; assay: Bliss interaction score (quartile over a dose matrix) (fitness difference); higher = more antagonism (negative = synergy)
Summary of the method: (§1)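 Quartiles summarise the Bliss score over technical, biological and donor/recipient replicates, where the score is observed minus expected fitness under a product model. Expected fitness uses single-drug values inferred from combination data. Fitness is OD595 at entry into stationary phase over the plate's robust no-drug mean, capped at 1.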

[2] = system: S. aureus Newman; assay: as above
Summary of the method: as §1

[3] = system: B. subtilis 168; assay: as above
Summary of the method: as §1

[4] = system: S. aureus DSM 20231; assay: as above
Summary of the method: as §1

[5] = system: S. pneumoniae D39V; assay: fitness (endpoint OD595 vs no drug) (fraction); higher = more growth
Summary of the method: (§2)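 Cultures at OD595 0.01 were dispensed into 384-well plates in TSB, LB Lennox or CY and incubated at 37 °C. Every 30 min for 14 h, OD595 was read and corrected by the first reading. Fitness is the optical density at entry into stationary phase relative to the robust mean of no-drug control wells, capped at 1.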

[6] = system: B. subtilis 168; assay: as above
Summary of the method: as §2

[7] = system: S. aureus DSM 20231; assay: as above
Summary of the method: as §2
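Throughout, for Bliss interaction score (quartile over a dose matrix): first quartile when negative (synergy) and third quartile when positive (antagonism).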

CC(=O)NC[C@H]1CN(c2ccc(N3CCOCC3)c(F)c2)C(=O)O1 [Linezolid] + CN(N=O)C(=O)N[C@@H](C=O)[C@@H](O)[C@H](O)[C@H](O)CO [Streptozotocin]
Conditions	Bliss interaction score
[1]	-0.115
[2]	-0.0367
[3]	-0.0322
[4]	-0.0379

fitness
Conditions	partner 0.15 µg/mL	partner 0.3 µg/mL	partner 0.6 µg/mL	partner 1.2 µg/mL	partner 2.4 µg/mL	partner 4.8 µg/mL
[5], first compound 0.105 µg/mL	–	–	–	0.771	0.815	0.778
[5], first compound 0.21 µg/mL	–	–	–	0.69	0.668	0.704
[5], first compound 0.42 µg/mL	–	–	–	0.438	0.432	0.408
[6], first compound 0.125 µg/mL	0.479	0.502	0.453	–	–	–
[6], first compound 0.25 µg/mL	0.0775	0.0625	0.0614	–	–	–
[7], first compound 0.125 µg/mL	0.778	0.738	0.68	–	–	–
[7], first compound 0.25 µg/mL	0.519	0.504	0.496	–	–	–
[7], first compound 0.5 µg/mL	0.129	0.176	0.133	–	–	–

fitness, one replicate
Conditions	partner 0.15 µg/mL	partner 0.3 µg/mL	partner 0.6 µg/mL	partner 1.2 µg/mL	partner 2.4 µg/mL	partner 4.8 µg/mL
[5], first compound 0.2 µg/mL	–	–	–	0.806	0.823	0.787
[5], first compound 0.4 µg/mL	–	–	–	0.615	0.69	0.653
[5], first compound 0.8 µg/mL	–	–	–	0.299	0.351	0.204
[6], first compound 0.0625 µg/mL	0.957	0.927	0.929	–	–	–
[6], first compound 0.5 µg/mL	0.0222	0.0242	0.0095	–	–	–
[7], first compound 1 µg/mL	0.023	0.0376	0.0265	–	–	–

CC(=O)NC[C@H]1CN(c2ccc(N3CCOCC3)c(F)c2)C(=O)O1 [Linezolid] + CN[C@@H]1[C@H](O)[C@H](NC)[C@H]2O[C@@]3(O)C(=O)C[C@@H](C)O[C@H]3O[C@@H]2[C@H]1O [Spectinomycin]
Conditions	Bliss interaction score
[1]	-0.134
[2]	-0.12
[3]	-0.0551
[4]	-0.0609

fitness
Conditions	partner 2 µg/mL	partner 4 µg/mL	partner 8 µg/mL	partner 16 µg/mL
[5], first compound 0.105 µg/mL	–	0.767	0.73	0.694
[5], first compound 0.21 µg/mL	–	0.663	0.662	0.582
[5], first compound 0.42 µg/mL	–	0.454	0.343	0.284
[6], first compound 0.125 µg/mL	0.507	0.426	0.336	–
[6], first compound 0.25 µg/mL	–	0.0516	0.0689	–
[6], first compound 0.5 µg/mL	0.0491	0.039	0.0208	–
[7], first compound 0.125 µg/mL	–	0.857	0.838	0.702
[7], first compound 0.25 µg/mL	–	0.547	0.458	0.419
[7], first compound 0.5 µg/mL	–	0.156	0.119	0.175

one replicate
Conditions	fitness
[5], first compound 0.2 µg/mL, partner 4 µg/mL	0.8
[5], first compound 0.2 µg/mL, partner 8 µg/mL	0.769
[5], first compound 0.4 µg/mL, partner 4 µg/mL	0.633
[5], first compound 0.4 µg/mL, partner 8 µg/mL	0.659
[5], first compound 0.8 µg/mL, partner 4 µg/mL	0.271
[5], first compound 0.8 µg/mL, partner 8 µg/mL	0.302
[6], first compound 0.0625 µg/mL, partner 2 µg/mL	0.893
[6], first compound 0.0625 µg/mL, partner 4 µg/mL	0.814
[6], first compound 0.0625 µg/mL, partner 8 µg/mL	0.654
[7], first compound 0.125 µg/mL, partner 32 µg/mL	0.472
[7], first compound 0.125 µg/mL, partner 64 µg/mL	0.0532
[7], first compound 0.25 µg/mL, partner 32 µg/mL	0.341
[7], first compound 0.25 µg/mL, partner 64 µg/mL	0.037
[7], first compound 0.5 µg/mL, partner 32 µg/mL	0.135
[7], first compound 0.5 µg/mL, partner 64 µg/mL	0.0476
[7], first compound 1 µg/mL, partner 4 µg/mL	0.0244
[7], first compound 1 µg/mL, partner 8 µg/mL	0.0183
[7], first compound 1 µg/mL, partner 16 µg/mL	0.009

CC(=O)NC[C@H]1CN(c2ccc(N3CCOCC3)c(F)c2)C(=O)O1 [Linezolid] + CN[C@H](CC(C)C)C(=O)N[C@H]1C(=O)N[C@@H](CC(N)=O)C(=O)N[C@H]2C(=O)N[C@H]3C(=O)N[C@H](C(=O)N[C@H](C(=O)O)c4cc(O)cc(O)c4-c4cc3ccc4O)[C@H](O)c3ccc(c(Cl)c3)Oc3cc2cc(c3O[C@@H]2O[C@H](CO)[C@@H](O)[C@H](O)[C@H]2O[C@H]2C[C@](C)(N)[C@H](O)[C@H](C)O2)Oc2ccc(cc2Cl)[C@H]1O [Vancomycin]
Conditions	Bliss interaction score
[1]	-0.13
[2]	-0.044
[3]	0.0387
[4]	0.0467

Conditions	fitness
[5], first compound 0.105 µg/mL, partner 0.125 µg/mL	0.689
[5], first compound 0.105 µg/mL, partner 0.25 µg/mL	0.0692
[5], first compound 0.105 µg/mL, partner 0.5 µg/mL	0.0491
[5], first compound 0.2 µg/mL, partner 0.03125 µg/mL	0.77
[5], first compound 0.2 µg/mL, partner 0.0625 µg/mL	0.751
[5], first compound 0.21 µg/mL, partner 0.125 µg/mL	0.573
[5], first compound 0.21 µg/mL, partner 0.25 µg/mL	0.082
[5], first compound 0.21 µg/mL, partner 0.5 µg/mL	0.0299
[5], first compound 0.4 µg/mL, partner 0.03125 µg/mL	0.63
[5], first compound 0.4 µg/mL, partner 0.0625 µg/mL	0.604
[5], first compound 0.42 µg/mL, partner 0.125 µg/mL	0.339
[5], first compound 0.42 µg/mL, partner 0.25 µg/mL	0.0579
[5], first compound 0.42 µg/mL, partner 0.5 µg/mL	0.0734
[5], first compound 0.8 µg/mL, partner 0.03125 µg/mL	0.302
[5], first compound 0.8 µg/mL, partner 0.0625 µg/mL	0.255
[5], first compound 0.8 µg/mL, partner 0.125 µg/mL	0.188
[7], first compound 0.125 µg/mL, partner 0.1875 µg/mL	0.897
[7], first compound 0.125 µg/mL, partner 0.375 µg/mL	0.936
[7], first compound 0.125 µg/mL, partner 0.75 µg/mL	0.943
[7], first compound 0.25 µg/mL, partner 0.1875 µg/mL	0.553
[7], first compound 0.25 µg/mL, partner 0.375 µg/mL	0.596
[7], first compound 0.25 µg/mL, partner 0.75 µg/mL	0.583
[7], first compound 0.5 µg/mL, partner 0.1875 µg/mL	0.204
[7], first compound 0.5 µg/mL, partner 0.375 µg/mL	0.18
[7], first compound 0.5 µg/mL, partner 0.75 µg/mL	0.215

[7], first compound 1 µg/mL, one replicate
Conditions	fitness
partner 0.1875 µg/mL	0.0273
partner 0.375 µg/mL	0.0396
partner 0.75 µg/mL	0.0452
